Measurements published in paper PMC10469688, “Comparative pharmacokinetics and safety evaluation of high dosage regimens of Andrographis paniculata aqueous extract after single and multiple oral administration in healthy participants” (Frontiers in Pharmacology, 2023).
Read-outs that look alike come from different tables or passages of the source.

Columns and labels:
[1] = Plasma pharmacokinetics after single and multiple oral administration of A. paniculata aqueous extract capsules in healthy participants (HPLC-MS/MS, non-compartmental analysis); type: in vivo, human; set-up: MRT: unit: h; Cmax: unit: ng/mL
Protocol: (§1) An opened-label, two-dosage, single- and multiple-oral dosing, single center, phase I safety and pharmacokinetic study was conducted in healthy participants while they were under a fasting condition. […] Two weeks prior to the beginning of the clinical study, the volunteers were advised to abstain from other dietary supplements, herbal products, or any concomitant medicines. During the period of the study, no other medications were allowed. All participants fasted overnight for at least 8 h before drug administration. The study conducted a single-dose investigation on day 1 by oral administering A. paniculata extract capsules once in both groups. Twelve participants in group 1 received 3 capsules orally (equivalent to 60 mg of andrographolide) with 240 mL of water, while another twelve participants in group 2 received 6 capsules (equivalent to 120 mg of andrographolide). This was followed by serial blood sampling for up to 24 h after dosing. For blood collection, 6 mL of venous blood in EDTA tube was collected via a forearm vein catheter at each time point including pre-dose (0 h), and post-dose after oral administration (T 0.167, 0.333, 0.5, 0.75, 1, 1.5, 2, 4, 6, 8, 10, 12 and 24 h). Subsequently, observation of elimination continued until 48 h post-dose to ensure complete excretion of the major active diterpenoids through urine. Urine samples were collected at day 0 (the day prior to dosing) and day 1–2 (T 0–4, 4–8, 8–12,12–24, 24–32, 32–40, and 40–48 h after dosing). The study then proceeded to investigate multiple doses in both groups by administering continuous oral doses from day 3 until the morning of day 5. (dosing at T48, 56, 64, 72, 80, 88, and 96 h). In group 1, three capsules were administered orally before meals, three times a day (3 × 3 capsules at 8-h intervals, calculated as 180 mg/day of andrographolide); whereas in group 2, six capsules were administered daily, three times a day (6 × 3 capsules at 8-h intervals, calculated as 360 mg/day of andrographolide). For serial blood sampling of multiple doses, 6 mL of blood samples were collected starting in the morning of day 5 (sampling timepoints T 96, 96.167, 96.333, 96.5, 96.75, 97, 97.5, 98, 100, 102, and 104 h post dose).
(§2) All collected blood samples were centrifuged at 4,000 rpm, 4^οC, for 5 min. Plasma was collected and stored in cryotubes at −70^οC until analysis. Urine was kept as 10 mL aliquot samples at each time point and stored at −70^οC until analysis. Extraction was performed by protein precipitation method as previously reported ([Songvut et al., 2023]). Briefly, 50 µL of either a plasma or urine sample was mixed with 200 µL of methanol containing an internal standard (IS) of digoxin (50 ng/mL). Pretreated samples were vortexed for 10 min and were then centrifuged at 12,000 rpm, 4°C, for 10 min. The supernatants were filtered through a 0.2 µm PVDF membrane and were subsequently transferred to vials for HPLC-MS/MS analysis.
(§3) Hydrolysis of the glucuronidated and sulfated conjugates was conducted by enzymatic incubation as our previous published method ([Songvut et al., 2023]). To analyze the metabolic conjugations, 50 μL of either a plasma or urine sample was pre-incubated at 37^οC with 50 µL of either of β-glucuronidase in sodium phosphate buffer (pH 6.8) for 30 min, or sulfatase in sodium acetate buffer (pH 5) for 2 h. IS (50 ng/mL) was then added along with 150 μL of methanol to precipitate protein. The extracted samples were then vortexed and centrifuged at 12,000 rpm, 4^οC, for 10 min. The supernatants were collected by filtering through a 0.2-µm PVDF membrane before HPLC-MS/MS injection.
(§4) Analysis for the concentrations of targeted compounds in plasma and urine samples were carried out using HPLC-MS/MS at the Laboratory of Pharmacology, Chulabhorn Research Institute, Bangkok, Thailand. The quantitative determination was performed according to a previously validated method ([Songvut et al., 2023]). […]

[2] = Cumulative urinary excretion after single oral administration of A. paniculata aqueous extract capsules in healthy participants; type: in vivo, human; conditions: urine T 0–48 h
Protocol: as §1, §2, §3, §4

[3] = multiple oral doses 60 mg × 3 times/day of andrographolide, n = 12, mean ± SD
[4] = multiple oral doses 60 mg × 3 times/day of andrographolide, n = 12, median [IQR]
[5] = multiple oral doses 120 mg × 3 times/day of andrographolide, n = 11, mean ± SD
[6] = multiple oral doses 120 mg × 3 times/day of andrographolide, n = 11, median [IQR]
[7] = single oral dose equivalent to 60 mg andrographolide, n = 12, mean ± SD
[8] = single oral dose equivalent to 60 mg andrographolide, n = 12, median [IQR]
[9] = single oral dose equivalent to 120 mg andrographolide, n = 11, mean ± SD
[10] = single oral dose equivalent to 120 mg andrographolide, n = 11, median [IQR]

## C=C1CCC2C(C)(CO)C(O)CCC2(C)C1C=CC1=CCOC1=O (stereo not shown) [14-Deoxy-11,12-didehydroandrographolide, 14-deoxy-11, 12-didehydroandrographolide]
[1]; [3]
  AUC(0–8h): 329 ± 55.5 ng·h/mL
  Cl/F: 16.3 ± 3.83 mL/min/kg
  MRT: 3.0 ± 0.61 h
  Vd/F: 2.6 ± 1.8 L/kg
[1]; [4]
  Half life: 1.6[0.80] h
  Tmax: 1.0[0.20] h
[1]; multiple oral doses 60 mg × 3 times/day of andrographolide, plasma T 0–8 h, n = 12, mean ± SD
  Cmax: 137 ± 29.3 ng/mL
[1]; [5]
  AUC(0–8h): 693 ± 165 ng·h/mL
  Cl/F: 14.2 ± 2.33 mL/min/kg
  MRT: 4.5 ± 1.2 h
  Vd/F: 4.4 ± 2.0 L/kg
[1]; [6]
  Half life: 3.0[1.5] h
  Tmax: 1.0[0.33] h
[1]; multiple oral doses 120 mg × 3 times/day of andrographolide, plasma T 0–8 h, n = 11, mean ± SD
  Cmax: 237 ± 41.4 ng/mL
[1]; [7]
  AUC(0-inf): 328 ± 102 ng·h/mL
  AUC(0–24h): 328 ± 102 ng·h/mL
  Cl/F: 18.3 ± 4.5 mL/min/kg
  MRT: 4.3 ± 0.44 h
  Vd/F: 2.1 ± 0.60 L/kg
[1]; [8]
  Half life: 1.4[0.07] h
  Tmax: 1.0[0.33] h
[1]; single oral dose equivalent to 60 mg andrographolide, plasma T 0–24 h, n = 12, mean ± SD
  Cmax: 98.6 ± 40.3 ng/mL
[1]; [9]
  AUC(0-inf): 674 ± 274 ng·h/mL
  AUC(0–24h): 674 ± 274 ng·h/mL
  Cl/F: 18.3 ± 6 mL/min/kg
  MRT: 4.1 ± 0.65 h
  Vd/F: 2.0 ± 0.69 L/kg
[1]; [10]
  Half life: 1.2[0.06] h
  Tmax: 1.5[0.25] h
[1]; single oral dose equivalent to 120 mg andrographolide, plasma T 0–24 h, n = 11, mean ± SD
  Cmax: 211 ± 138 ng/mL
[2]; [7]
  Cumulative urine: 70.6 ± 27.6 µg
[2]; [9]
  Cumulative urine: 159 ± 56.8 µg

## C=C1CC[C@@H]2[C@](C)(CO)[C@H](O)CC[C@@]2(C)[C@@H]1CCC1=CCOC1=O [14-Deoxyandrographolide, 14-deoxyandrographolide]
[1]; human, plasma, multiple oral doses 60 mg × 3 times/day of andrographolide, n = 12, mean ± SD
  CL/F: 255 mL/min/kg
[1]; human, plasma, multiple oral doses 60 mg × 3 times/day of andrographolide, n = 12, mean ± SD, read-out: AUC(0–8h)
  AUC(0-t): 11.3 ± 3.3 ng·h/mL
[1]; human, plasma, multiple oral doses 60 mg × 3 times/day of andrographolide, n = 12, mean ± SD, read-out: MRT
  MRT: 1.5 ± 0.11 h
[1]; human, plasma, multiple oral doses 60 mg × 3 times/day of andrographolide, n = 12, mean ± SD, read-out: Vd/F
  Vd/F: 5.4 ± 3.1 L/kg
[1]; human, plasma, multiple oral doses 60 mg × 3 times/day of andrographolide, n = 12, median [IQR]
  half-life: 0.23 h
[1]; human, plasma, multiple oral doses 60 mg × 3 times/day of andrographolide, n = 12, median [IQR], read-out: Tmax
  Tmax: 1 h
[1]; human, plasma, multiple oral doses 120 mg × 3 times/day of andrographolide, n = 11, mean ± SD
  CL/F: 302 mL/min/kg
[1]; human, plasma, multiple oral doses 120 mg × 3 times/day of andrographolide, n = 11, mean ± SD, read-out: AUC(0–8h)
  AUC(0-t): 20 ± 9.1 ng·h/mL
[1]; human, plasma, multiple oral doses 120 mg × 3 times/day of andrographolide, n = 11, mean ± SD, read-out: MRT
  MRT: 1.6 ± 0.07 h
[1]; human, plasma, multiple oral doses 120 mg × 3 times/day of andrographolide, n = 11, mean ± SD, read-out: Vd/F
  Vd/F: 5.7 ± 2.8 L/kg
[1]; human, plasma, multiple oral doses 120 mg × 3 times/day of andrographolide, n = 11, median [IQR]
  half-life: 0.21 h
[1]; human, plasma, multiple oral doses 120 mg × 3 times/day of andrographolide, n = 11, median [IQR], read-out: Tmax
  Tmax: 1 h
[1]; human, plasma, single oral dose equivalent to 60 mg andrographolide, n = 12, median [IQR], read-out: Tmax
  Tmax: 1 h
[1]; human, plasma, single oral dose equivalent to 120 mg andrographolide, n = 11, mean ± SD
  CL/F: 293 mL/min/kg
[1]; human, plasma, single oral dose equivalent to 120 mg andrographolide, n = 11, mean ± SD, read-out: AUC(0-inf)
  AUC(0-inf): 20.5 ± 8.8 ng·h/mL
[1]; human, plasma, single oral dose equivalent to 120 mg andrographolide, n = 11, mean ± SD, read-out: AUC(0–24h)
  AUC(0-t): 20.5 ± 8.8 ng·h/mL
[1]; human, plasma, single oral dose equivalent to 120 mg andrographolide, n = 11, mean ± SD, read-out: MRT
  MRT: 1.5 ± 0.08 h
[1]; human, plasma, single oral dose equivalent to 120 mg andrographolide, n = 11, mean ± SD, read-out: Vd/F
  Vd/F: 5.5 ± 2.9 L/kg
[1]; human, plasma, single oral dose equivalent to 120 mg andrographolide, n = 11, median [IQR]
  half-life: 0.21 h
[1]; human, plasma, single oral dose equivalent to 120 mg andrographolide, n = 11, median [IQR], read-out: Tmax
  Tmax: 1 h
[1]; human, multiple oral doses 60 mg × 3 times/day of andrographolide, plasma T 0–8 h, n = 12, mean ± SD, read-out: Cmax
  Cmax: 6.6 ± 1.9 ng/mL
[1]; human, multiple oral doses 120 mg × 3 times/day of andrographolide, plasma T 0–8 h, n = 11, mean ± SD, read-out: Cmax
  Cmax: 11.3 ± 5.5 ng/mL
[1]; human, single oral dose equivalent to 60 mg andrographolide, plasma T 0–24 h, n = 12, mean ± SD, read-out: Cmax
  Cmax: 4.2 ± 3.4 ng/mL
[1]; human, single oral dose equivalent to 120 mg andrographolide, plasma T 0–24 h, n = 11, mean ± SD, read-out: Cmax
  Cmax: 11.6 ± 5.4 ng/mL
[2]; [7]
  Cumulative urine: 108 ± 36.5 µg
[2]; [9]
  Cumulative urine: 199 ± 77.3 µg
